Results: publication PMC11239005, “Preclinical studies of RA475, a guanidine-substituted spirocyclic candidate RPN13/ADRM1 inhibitor for treatment of ovarian cancer” (PLOS ONE, 2024)

Key:
CD-1 mice = experiment: Single increasing dose tolerability in CD-1 mice, IP; type: in vivo, mouse; conditions: CD-1 mice, single IP doses at or below 80 mg/Kg
Method: (§1) RA475 in 25% β-hydroxy propyl cyclodextrin in water was administered at increasing single doses to CD-1 mice (n = 3/group) via intraperitoneal injection.

[1] = as above; type: in vivo, mouse; conditions: CD-1, mouse, in vivo; mice, single dose, IP
Method: as §1

[2] = Stability in liver microsomes (species not separated in text); type: in vitro ADME
Method: Human and mouse liver microsomes and NADPH regenerating system solutions were purchased from Corning Life Sciences (Tewsbury, MA). Human and mouse K2EDTA-treated plasma was purchased from BioIVT (Westbury, NY). Metabolic studies in liver microsomes (0.125 mg/mL) were conducted in 1x PBS (pH 7.4), NADPH-generating system, and 10 μM RA475 in a final volume of 250 μL. An incubation mixture with or without NADPH-generating system, as well as a neat solution prepared without microsomes and NADPH-generating system was used. RA475 was added at the same concentration level into human and mouse EDTA plasma. All reactions were initiated with the addition of RA475. Incubations were performed in glass tubes maintained at 37°C in a shaker bath. At 0, 30, and 60 min, 10 μL samples were withdrawn from the reaction mixture, and 0.5 mL of acetonitrile containing internal standard was added to each. Samples were vortex-mixed and subjected to centrifugation for 5 min at 1430 x g. A 10 μL aliquot of the supernatant was injected onto the LC-MS/MS instrument for qualitative analysis using a temperature-controlled autosampling device operating at 5°C (See Pharmacokinetic section).

In the case of Cl.Cl.N#Cc1ccc(/C=C2/C(=O)/C(=C/c3ccc(C#N)cc3)C23CCN(C(=N)N)CC3)cc1 [RA475, 1,3-bis((E)-4-cyanobenzylidene)-2-oxo-7-azaspiro[3.5]nonane-7-carboximidamide dihydrochloride], the “adverse events, including weight loss” value (CD-1 mice) is reported as “No evidence of adverse events”, the NOAEL [1] is reported as > 80 mg/kg and the “present after 1 h in liver microsomes” value [2] is reported as 93%.
